Results from PubChem BioAssay AID330 (DTP/NCI, 2004).
Where “and” joins values, the source holds several entries; their conditions need not be identical. Identical values can stand only once. Toxic doses and inconclusive results are not listed. How the source made its calls: active means survival T/C of 150% or more; inactive means T/C below 125% in these data.

System: P388 leukemia ip, CD2F1 mice, survival T/C
Test: NCI In Vivo Anticancer Drug Screen. Data for tumor model P388 Leukemia (intraperitoneal) in CD2F1 (CDF1) mice
Settings: endpoint: median survival time, higher = longer survival
Procedure, shortened: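 Mice carrying the transplanted tumor received test compound or vehicle. Survival was recorded in each group, and the value is the treated-group measurement divided by that of the vehicle-treated control group.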

[1] = dose: 100.0 mg/kg/injection, schedule: Q01DX009 (ip), vehicle: saline with Tween-80
[2] = dose: 200.0 mg/kg/injection, schedule: Q01DX009 (ip), vehicle: saline with Tween-80
[3] = dose: 100.0 mg/kg/injection, schedule: Q04DX003 (ip), vehicle: saline
[4] = dose: 200.0 mg/kg/injection, schedule: Q04DX003 (ip), vehicle: saline
[5] = dose: 400.0 mg/kg/injection, schedule: Q04DX003 (ip), vehicle: saline
[6] = dose: 50.0 mg/kg/injection, schedule: Q01DX009 (ip), vehicle: Klucel (hydroxypropylcellulose) (HPC)
[7] = dose: 100.0 mg/kg/injection, schedule: Q01DX009 (ip), vehicle: Klucel (hydroxypropylcellulose) (HPC)
[8] = dose: 200.0 mg/kg/injection, schedule: Q01DX009 (ip), vehicle: Klucel (hydroxypropylcellulose) (HPC)
[9] = dose: 50.0 mg/kg/injection, schedule: Q01DX005 (ip), vehicle: Klucel (hydroxypropylcellulose) (HPC)
[10] = dose: 100.0 mg/kg/injection, schedule: Q01DX005 (ip), vehicle: Klucel (hydroxypropylcellulose) (HPC)
[11] = dose: 100.0 mg/kg/injection, schedule: Q04DX003 (ip), vehicle: saline with Tween-80

Measured: T/C

Cc1ccc(C2(C(=O)O)CC2)cc1
inactive: [1] 100 % of control | [2] 100 % of control | dose: 400.0 mg/kg/injection, schedule: Q01DX009 (ip), vehicle: saline with Tween-80 90 % of control

O=[N+]([O-])c1cc(Br)cc2c1[nH]c1nc3ccc(C(F)(F)F)cc3nc12
inactive: [3] 91 % of control | [4] 95 % of control | [5] 94 % of control

CCOC(=O)c1ccc(NC(CCN2CCOCC2)=NC(C)(C)C)cc1
inactive: dose: 50.0 mg/kg/injection, schedule: Q01DX009 (ip), vehicle: saline with Tween-80 111 % of control | [1] 106 % of control | [2] 105 % of control

COCC(O)Cn1ccnc1[N+](=O)[O-] (stereo not given)
inactive: dose: 1.0 mg/kg/injection, schedule: Q01DX009 (ip), vehicle: saline + alcohol 100 % of control | dose: 1.0 mg/kg/injection, schedule: Q01DX009 (ip), vehicle: saline 104 % of control | dose: 2.0 mg/kg/injection, schedule: Q01DX009 (ip), vehicle: saline + alcohol 98 % of control | dose: 2.0 mg/kg/injection, schedule: Q01DX009 (ip), vehicle: saline 109 % of control | dose: 4.0 mg/kg/injection, schedule: Q01DX009 (ip), vehicle: saline 120 % of control | dose: 8.0 mg/kg/injection, schedule: Q01DX009 (ip), vehicle: saline 111 % of control | dose: 16.0 mg/kg/injection, schedule: Q01DX009 (ip), vehicle: saline 108 % of control | dose: 32.0 mg/kg/injection, schedule: Q01DX009 (ip), vehicle: saline 112 % of control | dose: 64.0 mg/kg/injection, schedule: Q01DX009 (ip), vehicle: saline + alcohol 124 % of control | dose: 64.0 mg/kg/injection, schedule: Q01DX009 (ip), vehicle: saline 102 % of control | dose: 128.0 mg/kg/injection, schedule: Q01DX009 (ip), vehicle: saline + alcohol 98 % of control | dose: 128.0 mg/kg/injection, schedule: Q01DX009 (ip), vehicle: saline 111 % of control | dose: 250.0 mg/kg/injection, schedule: Q01DX001 (ip), vehicle: saline + alcohol 97 % of control | dose: 256.0 mg/kg/injection, schedule: Q01DX009 (ip), vehicle: saline + alcohol 91 % of control | dose: 256.0 mg/kg/injection, schedule: Q01DX009 (ip), vehicle: saline 111 % of control | dose: 500.0 mg/kg/injection, schedule: Q01DX001 (ip), vehicle: saline + alcohol 100 % of control | dose: 512.0 mg/kg/injection, schedule: Q01DX009 (ip), vehicle: saline 112 % of control | dose: 600.0 mg/kg/injection, schedule: Q01DX005 (ip), vehicle: saline 114 % of control | dose: 1000.0 mg/kg/injection, schedule: Q01DX001 (ip), vehicle: saline + alcohol 102 % of control | dose: 1000.0 mg/kg/injection, schedule: Q01DX005 (ip), vehicle: saline 105 % of control | dose: 2000.0 mg/kg/injection, schedule: Q01DX001 (ip), vehicle: saline + alcohol 66 % of control

Nc1nc(N)c(-c2ccc(Cl)c(Cl)c2)c(CP(Cl)(Cl)(Cl)Br)n1
inactive: dose: 6.25 mg/kg/injection, schedule: Q01DX009 (ip), vehicle: Klucel (hydroxypropylcellulose) (HPC) 96 % of control | dose: 12.5 mg/kg/injection, schedule: Q01DX009 (ip), vehicle: Klucel (hydroxypropylcellulose) (HPC) 104 % of control | dose: 25.0 mg/kg/injection, schedule: Q01DX009 (ip), vehicle: Klucel (hydroxypropylcellulose) (HPC) 109 % of control | [6] 114 % of control

C=C(C)C(=O)Oc1ccccc1/C=C/C(=O)CCCCCC
inactive: dose: 50.0 mg/kg/injection, schedule: Q01DX005 (ip), vehicle: saline with Tween-80 98 % of control | dose: 100.0 mg/kg/injection, schedule: Q01DX005 (ip), vehicle: saline with Tween-80 96 % of control | dose: 200.0 mg/kg/injection, schedule: Q01DX005 (ip), vehicle: saline with Tween-80 88 % of control

O=Cc1ncccc1[N+](=O)[O-]
inactive: dose: 50.0 mg/kg/injection, schedule: Q01DX009 (ip), vehicle: saline + Tween-80 + alcohol 116 % of control | dose: 100.0 mg/kg/injection, schedule: Q01DX009 (ip), vehicle: saline + Tween-80 + alcohol 115 % of control

COc1ccc(NC(=O)Nc2ccc(Cl)cc2)nn1
inactive: [6] 103 % of control | [7] 101 % of control | [8] 94 % of control

CCOC(=O)C(C(=O)OCC)=C1c2c(ccc(OC)c2OC)C=C2c3cc4c(cc3CCN21)OCO4
inactive: dose: 0.63 mg/kg/injection, schedule: Q01DX009 (ip), vehicle: water 97 % of control | dose: 1.25 mg/kg/injection, schedule: Q01DX009 (ip), vehicle: water 100 % of control | dose: 2.5 mg/kg/injection, schedule: Q01DX009 (ip), vehicle: water 106 % of control | dose: 5.0 mg/kg/injection, schedule: Q01DX009 (ip), vehicle: water 117 % of control | dose: 10.0 mg/kg/injection, schedule: Q01DX009 (ip), vehicle: water 124 % of control

CC1CC[N+](C)([B-](F)(F)F)CC1 (stereo not given)
inactive: dose: 50.0 mg/kg/injection, schedule: Q01DX005 (ip), vehicle: saline 100 % of control | dose: 100.0 mg/kg/injection, schedule: Q01DX005 (ip), vehicle: saline 106 % of control

CC1(C)C2=CC3(C)N(CN2c2ccccc21)c1ccccc1C3(C)C (stereo not given)
inactive: dose: 60.0 mg/kg/injection, schedule: Q01DX005 (ip), vehicle: Klucel (hydroxypropylcellulose) (HPC) 92 % of control | dose: 120.0 mg/kg/injection, schedule: Q01DX005 (ip), vehicle: Klucel (hydroxypropylcellulose) (HPC) 95 % of control | dose: 240.0 mg/kg/injection, schedule: Q01DX005 (ip), vehicle: Klucel (hydroxypropylcellulose) (HPC) 95 % of control

COc1c(NC(C)=O)c2ccccc2c2ccccc12
inactive: [9] 106 % of control | [10] 109 % of control | dose: 200.0 mg/kg/injection, schedule: Q01DX005 (ip), vehicle: Klucel (hydroxypropylcellulose) (HPC) 97 % of control

CC([CH2][Sn]([CH3])([Cl])[c]1ccccc1)c1ccccc1 (stereo not given)
inactive: dose: 12.5 mg/kg/injection, schedule: Q04DX003 (ip), vehicle: saline 98 % of control | dose: 25.0 mg/kg/injection, schedule: Q04DX003 (ip), vehicle: saline 103 % of control | dose: 50.0 mg/kg/injection, schedule: Q04DX003 (ip), vehicle: saline 94 % of control | [11] 98 % of control

COc1cccc2c1C(=O)c1c(O)c3c(c(O)c1C2=O)C[C@@](O)(C(C)O)C[C@@H]3OC1CC(N2CCOCC2)C(O)C(C)O1 (stereo not given in full)
inactive: dose: 25.0 micrograms/kg/injection, schedule: Q04DX003 (ip), vehicle: water 101 % of control | dose: 50.0 micrograms/kg/injection, schedule: Q04DX003 (ip), vehicle: water 97 % of control | dose: 100.0 micrograms/kg/injection, schedule: Q04DX003 (ip), vehicle: water 100 % of control and 118 % of control

O=C(N/N=C/c1ccccc1[OH2+])c1ccncc1.O=C(N/N=C/c1ccccc1[OH2+])c1ccncc1.[Cl-].[Mn+2]
inactive: dose: 100.0 mg/kg/injection, schedule: Q04DX002 (ip), vehicle: Klucel (hydroxypropylcellulose) (HPC) 112 % of control | dose: 200.0 mg/kg/injection, schedule: Q04DX002 (ip), vehicle: Klucel (hydroxypropylcellulose) (HPC) 107 % of control | dose: 400.0 mg/kg/injection, schedule: Q04DX002 (ip), vehicle: Klucel (hydroxypropylcellulose) (HPC) 94 % of control

OCCN1CCN(CCCN2c3cc(Cl)ccc3Sc3ccsc32)CC1
inactive: [9] 97 % of control | [10] 97 % of control

Cn1cnc([N+](=O)[O-])c1SCC(=O)O
inactive: [6] 108 % of control | [7] 122 % of control | [8] 96 % of control | dose: 400.0 mg/kg/injection, schedule: Q01DX009 (ip), vehicle: Klucel (hydroxypropylcellulose) (HPC) 103 % of control

CCOc1ccc(N=C2C=C(Nc3ccc(OCC)cc3)C(=Nc3ccc(OCC)cc3)C=C2Nc2ccc(OCC)cc2)cc1
inactive: dose: 60.0 mg/kg/injection, schedule: Q01DX005 (ip), vehicle: saline with Tween-80 96 % of control | dose: 120.0 mg/kg/injection, schedule: Q01DX005 (ip), vehicle: saline with Tween-80 95 % of control | dose: 240.0 mg/kg/injection, schedule: Q01DX005 (ip), vehicle: saline with Tween-80 92 % of control

O=C(CCS(=O)(=O)CCC(=O)c1ccccc1)c1ccccc1
inactive: [3] 90 % of control | [4] 89 % of control | [5] 88 % of control

CC(=O)NCC(=O)c1ccc(Cl)cc1
inactive: [11] 120 % of control | dose: 200.0 mg/kg/injection, schedule: Q04DX003 (ip), vehicle: saline with Tween-80 120 % of control | dose: 400.0 mg/kg/injection, schedule: Q04DX003 (ip), vehicle: saline with Tween-80 105 % of control
